According to publication PMC9143880, “Improving Antimicrobial Activity and Physico-Chemical Properties by Isosteric Replacement of 2-Aminothiazole with 2-Aminooxazole” (Pharmaceuticals, 2022):
≈ marks a conversion by molar mass, not a printed value. Where two headings read alike, the source gives them in different places.

Legend:
Mtb laboratory ID MATI = format: cell-based, Mycobacterium tuberculosis; settings: MDR strain MATI, CLSI breakpoints 2021
Mtb laboratory ID IZAK = format: cell-based, Mycobacterium tuberculosis; settings: MDR strain IZAK, CLSI breakpoints 2020
[1] = test system: M. smegmatis DSM 43465 (ATCC 607); experiment: Antimycobacterial MIC, microdilution broth / resazurin; format: cell-based; settings: Mycolicibacterium smegmatis; resazurin after 48 h; read-out: MIC M. smegmatis
[2] = test system: Staphylococcus aureus subsp. aureus CCM 4223 (ATCC 29213); experiment: Antibacterial microdilution broth (EUCAST); format: cell-based; settings: Staphylococcus aureus; 24h incubation; read-out: MIC SA
[3] = test system: Mycobacterium tuberculosis H37Ra ITM-M006710 (ATCC 9431); experiment: Antimycobacterial MIC, microdilution broth / Alamar Blue (resazurin); format: cell-based; settings: Mycobacterium tuberculosis
[4] = test system: M. aurum DSM 43999 (ATCC 23366); experiment: Antimycobacterial MIC, microdilution broth / resazurin; format: cell-based; settings: Mycolicibacterium aurum, read-out: MIC M. aurum
[5] = test system: Acinetobacter baumannii DSM 30007 (ATCC 19606); experiment: Antibacterial microdilution broth (EUCAST); format: cell-based; settings: Acinetobacter baumannii; 24h incubation; read-out: MIC AB
[6] = test system: Candida tropicalis CCM 8264 (ATCC 750); experiment: Antifungal microdilution broth (EUCAST); settings: Candida tropicalis, 24 h, read-out: MIC CT
[7] = test system: Trichophyton interdigitale CCM 8377 (ATCC 9533); experiment: Antifungal microdilution broth (EUCAST); settings: Trichophyton interdigitale, 72 h, read-out: MIC TI
HepG2 cells = experiment: HepG2 cytotoxicity screening (CellTiter 96); format: cell-based, human; settings: for IC50: Homo sapiens, HepG2, 24 h, 24 h incubation, CellTiter 96, * above highest tested concentration, ** limited by insolubility in medium; for SI: SI = IC50 (µM) HepG2 / MICH37Ra (µM)
[8] = test system: Aspergillus fumigatus ATCC 204305; experiment: Antifungal microdilution broth (EUCAST); settings: Aspergillus fumigatus, ATCC204305, 24 h, read-out: MIC AF
[9] = test system: M. avium DSM 44156 (ATCC 25291); experiment: Antimycobacterial MIC, microdilution broth / resazurin; format: cell-based, Mycobacterium avium; settings: Mycobacterium avium; resazurin after 96 h; read-out: MIC M. avium
[10] = RP-UHPLC lipophilicity parameter log k’w; format: physicochemical; settings: for log k’w: RP-UHPLC, acetonitrile/water, log k extrapolated to 0% acetonitrile; for logkw: experimental lipophilicity parameter
Method in brief: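 Retention was measured once per eluent composition: subtype I at 40/45/50% and subtype II at 20/30/40% acetonitrile in water, isocratic RP-UHPLC. log k values from these runs gave the lipophilicity index log k’w.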

[11] = test system: Lichtheimia corymbifera CCM 8077; experiment: Antifungal microdilution broth (EUCAST); settings: Lichtheimia corymbifera, CCM8077, 24 h, read-out: MIC LC
[12] = test system: Pseudomonas aeruginosa CCM 3955 (ATCC 27853); experiment: Antibacterial microdilution broth (EUCAST); format: cell-based; settings: Pseudomonas aeruginosa; 72h incubation; read-out: MIC PA
[13] = test system: Candida krusei CCM 8271 (ATCC 6258); experiment: Antifungal microdilution broth (EUCAST); settings: Pichia kudriavzevii, 24 h, read-out: MIC CK
[14] = test system: M. kansasii DSM 44162 (ATCC 12478); experiment: Antimycobacterial MIC, microdilution broth / resazurin; format: cell-based; settings: Mycobacterium kansasii, read-out: MIC M. kansasii
[15] = Kinetic water solubility (water-induced precipitation of DMSO stock, UHPLC); format: physicochemical; settings: for solubility: water (DMSO stock diluted with water), 18 °C, kinetic from dmso stock
Text: A low value of log P is often presumed to be related to increased water solubility, although this might not always be the case since log P is a measure of relative solubility of the compound in the lipophilic and hydrophilic solvents (at equilibrium). Therefore, to be sure, we tested whether the lowered log k’w (related to log P) of the oxazole derivatives would also translate to increased solubility in water in a few representative derivatives. The water solubility of selected compounds was assessed by the kinetic method based on water-induced precipitation of DMSO stock solutions of tested compounds due to reasons described by Azzali and colleagues.
Water solubility was investigated using the kinetic solubility method. The sample (1 mg) was dissolved in the smallest amount of DMSO needed, 25 or 50 μL for subtype I and subtype II compounds, respectively. The samples were mixed at 18 °C in a thermomixer (Thermomixer comfort, Eppendorf, Hamburg, Germany) for 1 h. After mixing, the samples were diluted with water to a concentration of 500 μM, and the precipitate was observed. The sample was filtered through a 0.22 μm filter and diluted to be evaluated by UHPLC. The log S parameter was calculated from the experimental solubility in molar concentration. The samples were measured using the same instrument, software, and column as used in the purity evaluation.

[16] = test system: Staphylococcus aureus subsp. aureus (MRSA) CCM 4750 (ATCC 43300); experiment: Antibacterial microdilution broth (EUCAST); format: cell-based; settings: Staphylococcus aureus; 24h incubation; read-out: MIC MRSA
[17] = test system: Candida parapsilosis CCM 8260 (ATCC 22019); experiment: Antifungal microdilution broth (EUCAST); settings: Lodderomyces parapsilosis, 24 h, read-out: MIC CP
[18] = test system: Candida albicans CCM 8320 (ATCC 24433); experiment: Antifungal microdilution broth (EUCAST); settings: Candida albicans, 24 h, read-out: MIC CA
[19] = test system: Enterococcus faecalis CCM 4224 (ATCC 29212); experiment: Antibacterial microdilution broth (EUCAST); format: cell-based; settings: Enterococcus faecalis; 24h incubation; read-out: MIC EF
[20] = test system: Escherichia coli CCM 3954 (ATCC 25922); experiment: Antibacterial microdilution broth (EUCAST); format: cell-based; settings: Escherichia coli; 24h incubation; read-out: MIC EC
[21] = test system: Aspergillus flavus CCM 8363; experiment: Antifungal microdilution broth (EUCAST); settings: Aspergillus flavus, CCM8363, 24 h, read-out: MIC AFla
[22] = test system: Staphylococcus epidermidis CCM 4418 (ATCC 12228); experiment: Antibacterial microdilution broth (EUCAST); format: cell-based; settings: Staphylococcus epidermidis; 24h incubation; read-out: MIC SE
[23] = 120 h, Middlebrook 7H9, resazurin after 120 h, read-out: Mtb H37Ra MIC
[24] = recalculated from µg/mL, read-out: MICH37Ra
[25] = calculated from experimentally measured water solubility in molar concentration, read-out: Exp. log S (converted)
[26] = water, kinetic method, DMSO stock diluted to 500 μM, read-out: Solubility

| Compound | MIC [1] [µg/mL] | MIC [2] [µM] | MIC [3, 23] [µg/mL] | MIC [5] [µM] | MIC [6] [µM] | MIC [7] [µM] | IC50 (HepG2 cells) [µM] | MIC [8] [µM] | log k’w [10] | logkw [10] | MIC [11] [µM] | MIC [12] [µM] | MIC [13] [µM] | MIC [16] [µM] | MIC [17] [µM] | MIC [18] [µM] | MIC [19] [µM] | MIC [20] [µM] | MIC [21] [µM] | MIC [22] [µM] | further results |
| --- | --- | --- | --- | --- | --- | --- | --- | --- | --- | --- | --- | --- | --- | --- | --- | --- | --- | --- | --- | --- | --- |
| NC(=O)c1cnccn1 [PZA, pyrazinamide] | – | – | – | – | – | – | – | – | – | – | – | – | – | – | – | – | – | – | – | – | Concentration (susceptibility profile) (Mtb laboratory ID MATI): > 128 µg/mL; Susceptibility (Mtb laboratory ID MATI): resistant; Concentration (susceptibility profile) (Mtb laboratory ID IZAK): > 16 µg/mL; Susceptibility (Mtb laboratory ID IZAK): resistant |
| O=C(Nc1nc(-c2ccccc2)co1)c1ccnc(Cl)c1 [Compound 15b] | 31.2 (≈ 104 µM) | 62.5 (≈ 18.7 µg/mL) | 7.81 | 500 (≈ 150 µg/mL) | 500 (≈ 150 µg/mL) | 500 (≈ 150 µg/mL) | 136 | > 500 | 1.992 | 1.992 | > 500 | > 500 | 500 (≈ 150 µg/mL) | 62.5 (≈ 18.7 µg/mL) | 500 (≈ 150 µg/mL) | 500 (≈ 150 µg/mL) | 250 (≈ 74.9 µg/mL) | > 500 | > 500 | 250 (≈ 74.9 µg/mL) | MIC [3, 24]: 26.1 µM; MIC ([4]; 72 h): 7.81 µg/mL (≈ 26.1 µM); SI (HepG2 cells): 5.2; MIC [9]: 15.6 µg/mL (≈ 52.1 µM); MIC ([14]; resazurin after 96 h): 15.6 µg/mL (≈ 52.1 µM); solubility [15, 25]: 417 µM; solubility [15, 26]: 124 µg/mL |
| O=C(Nc1nc(-c2ccccc2)co1)c1cccnc1 [Compound 12b] | 500 (≈ 1880 µM) | 500 (≈ 133 µg/mL) | 125 | > 500 | > 500 | > 500 | 610 | > 500 | 1.118 | 1.118 | > 500 | > 500 | > 500 | > 500 | > 500 | > 500 | > 500 | > 500 | > 500 | 62.5 (≈ 16.6 µg/mL) | MIC ([4]; resazurin after 72 h): 250 µg/mL (≈ 942 µM); logS_exp ([15]; experimental log S): -2.228; solubility [15, 25]: 437 µM; solubility [15, 26]: 116 µg/mL |
| O=C(Nc1nccs1)c1ccnc(Cl)c1 [Compound 6a] | ≥ 500 | > 500 | ≥ 500 | > 500 | > 500 | > 500 | > 250 | > 500 | 2.013 | 2.013 | > 500 | > 500 | > 500 | > 500 | > 500 | > 500 | > 500 | > 500 | > 500 | > 500 | MIC ([4]; resazurin after 72 h): ≥ 500 µg/mL; MIC [9]: ≥ 500 µg/mL; MIC ([14]; resazurin after 96 h): ≥ 500 µg/mL; melting point: 152 to 154 °C; solubility [15, 25]: 126 µM; solubility [15, 26]: 29.9 µg/mL |
| O=C(Nc1ncco1)c1cccnc1 [Compound 2b] | 62.5 (≈ 330 µM) | 250 (≈ 47.3 µg/mL) | 31.2 | > 500 | > 500 | 125 (≈ 23.6 µg/mL) | > 1000 | > 500 | 0.436 | 0.4358 | > 500 | > 500 | 500 (≈ 94.6 µg/mL) | 500 (≈ 94.6 µg/mL) | 250 (≈ 47.3 µg/mL) | 500 (≈ 94.6 µg/mL) | > 500 | > 500 | > 500 | 500 (≈ 94.6 µg/mL) | MIC ([4]; resazurin after 72 h): 15.6 µg/mL (≈ 82.6 µM); melting point: 155 to 160 °C; logS_exp ([15]; experimental log S): -0.9171 |
| O=C(Nc1nc(-c2ccccc2)cs1)c1cccnc1 [Compound 12a] | ≥ 500 | > 125 | ≥ 500 | > 125 | > 125 | > 125 | > 25 | > 125 | 2.131 | 2.131 | > 125 | > 125 | > 125 | > 125 | > 125 | > 125 | > 125 | > 125 | > 125 | > 125 | MIC ([4]; resazurin after 72 h): ≥ 500 µg/mL; MIC [9]: ≥ 500 µg/mL; MIC ([14]; resazurin after 96 h): ≥ 500 µg/mL; logS_exp ([15]; experimental log S): -3.188; solubility [15, 25]: 1 µM; solubility [15, 26]: 0.28 µg/mL |
| O=C(Nc1nc(-c2ccccc2)cs1)c1ccnc(Cl)c1 [Compound 15a] | 15.6 (≈ 49.5 µM) | > 500 | 3.91 | > 500 | > 125 | > 125 | 103 | > 125 | 3.036 | 3.036 | > 125 | > 500 | > 125 | > 500 | > 125 | > 125 | > 500 | > 500 | > 125 | > 500 | MIC [3, 24]: 12.4 µM; MIC ([4]; resazurin after 72 h): 31.2 µg/mL (≈ 99 µM); SI (HepG2 cells): 8.3; MIC [9]: 15.6 µg/mL (≈ 49.5 µM); MIC ([14]; 96 h): < 3.91 µg/mL; melting point: 158 to 162 °C; solubility [15, 25]: 6.61 µM; solubility [15, 26]: 2.1 µg/mL |
| [H]/N=C(/N)N[C@H]1[C@H](O)[C@@H](O)[C@H](O[C@@H]2O[C@@H](C)[C@](O)(C=O)[C@H]2O[C@@H]2O[C@@H](CO)[C@H](O)[C@@H](O)[C@@H]2NC)[C@@H](N/C(N)=N\[H])[C@@H]1O [STM, streptomycin] | – | – | – | – | – | – | – | – | – | – | – | – | – | – | – | – | – | – | – | – | Concentration (susceptibility profile) (Mtb laboratory ID MATI): > 16 µg/mL; Susceptibility (Mtb laboratory ID MATI): resistant; Concentration (susceptibility profile) (Mtb laboratory ID IZAK): 4 µg/mL; Susceptibility (Mtb laboratory ID IZAK): resistant |
| O=C(Nc1nccs1)c1cccnc1 [Compound 2a] | ≥ 500 | > 500 | 250 | > 500 | > 500 | > 500 | > 1000 | > 500 | – | – | > 500 | > 500 | > 500 | > 500 | > 500 | > 500 | > 500 | > 500 | > 500 | > 500 | MIC ([4]; resazurin after 72 h): 250 µg/mL (≈ 1220 µM); logS_exp [15]: -1.202 |
